# Reference: patent publication US20140242093A1, “METHODS AND COMPOSITIONS FOR MODULATING THE INNATE IMMUNE RESPONSE AND/OR MYOGENESIS IN A MAMMALIAN SUBJECT” (FRED HUTCHINSON CANCER RESEARCH CENTER, priority 2011, published 2014)
# Tested on: control human primary myoblasts
# Assay: Expression microarray of primary myoblasts transduced with lentivirus carrying DUX4-fl, DUX4-s or GFP
# Experimental: Primary human myoblasts were collected and cultured as previously described (Snider et al., 2010). Primary myoblasts were maintained at or below 70% confluency for proliferation. For differentiation, cells were allowed to reach 95-100% confluency in growth medium. Once confluency was reached, the cells were changed to differentiation medium (F10 media supplemented with 1% horse serum, 10 μg/mL insulin, and 10 μg/mL transferrin, penicillin/streptomycin) and maintained for 4 days. Human RD cells were grown in DMEM in 10% bovine calf serum (Hyclone) and penicillin/streptomycin. The primary myoblasts were transduced with lentivirus carrying DUX-fl, DUX4- or GFP (MOI=15).
# Expression microarrays were performed on the transduced cells at 24 hours after transduction as follows. […] Samples were analyzed by Illumina Human Whole Genome microarrays. Probe intensities were corrected, normalized, and summarized by the Lumi package of Bioconductor (Du et al., 2008). Differentially expressed genes were identified by the LIMMA package of Bioconductor (Wettenhall and Smyth, 2004). Gene set enrichment analysis (GSEA) was performed using the Bioconductor GOstats package (Falcon and Gentleman, 2007).
substance,measurement,setting,value
"DUX4-fl: full-length DUX4 protein (SEQ ID NO:110), expressed from lentiviral or pCS2 vectors or in vitro translated",LOC728450 expression fc,Refseq XM_001131473.2,2.474
same,RFNG fc,Refseq XM_001132711.1,−1.116
same,LOC732416 expression fc,Refseq XM_001133386.1,2.329
same,THOC4 expression fc,Refseq XM_001134346.1,4.035
same,PRAMEF15 expression fc,Refseq XM_001713659.1,7
same,LOC100131392 expression fc,Refseq XM_001713681.1,6.976
same,LOC100132564 expression fc,Refseq XM_001713808.1,3.588
same,LOC391769 expression fc,Refseq XM_001713901.1,8.19
same,PRAMEF13 expression fc,Refseq XM_001713933.1,7.422
same,PRAMEF11 expression fc,Refseq XM_001714028.1,5.94
same,fc of LOC285296 (expression array),Refseq XM_001714301.1,−1.042
same,LOC100133588 expression fc,Refseq XM_001714755.1,2.2
same,CTGLF7 expression fc,Refseq XM_001714786.1,3.437
same,LOC100129630 expression fc,Refseq XM_001714940.1,1.871
same,LOC391763 expression fc,Refseq XM_001715080.1,1.963
same,LOC642446 expression fc,Refseq XM_001717781.1,3.101
same,LOC100133446 expression fc,Refseq XM_001717965.1,4.635
same,LOC100129165 fc,Refseq XM_001718314.1,−1.161
same,LOC643336 expression fc,Refseq XM_001718563.1,1.934
same,LOC100129053 expression fc,Refseq XM_001718702.1,2.724
same,LOC100130652 expression fc,Refseq XM_001719052.1,3.33
same,RFPL4A expression fc,Refseq XM_001719234.1,4.348
same,LOC728809 fc,Refseq XM_001719546.1,−1.14
same,LOC100134199 expression fc,Refseq XM_001719549.1,8.048
same,PNMA6B expression fc,Refseq XM_001721351.1,3.603
same,LOC100133984 expression fc,Refseq XM_001723079.1,6.204
same,LOC649330 expression fc,Refseq XM_001723218.1,3.101
same,LOC100128202 expression fc,Refseq XM_001723719.1,3.711
same,LOC100130311 expression fc,Refseq XM_001724111.1,2.912
same,LOC100131539 expression fc,Refseq XM_001724873.1,4.629
same,LOC100134006 expression fc,Refseq XM_001725030.1,7.087
same,LOC730167 expression fc,Refseq XM_001726158.1,3.656
same,LOC100129681 expression fc,"Refseq XM_001726834.1, cultured human skeletal muscle",−4.075
same,LOC651709 expression fc,Refseq XM_001732813.1,2.304
same,LOC727828 expression fc,Refseq XR_015137.1,3.054
same,LOC728060 fc,Refseq XR_015272.2,−1.095
same,LOC732393 expression fc,Refseq XR_015873.1,4.637
same,MGC40489 expression fc,Refseq XR_016048.1,2.542
same,LOC643263 expression fc,Refseq XR_016355.1,8.345
same,LOC441081 expression fc,Refseq XR_017029.1,3.764
same,LOC647366 expression fc,Refseq XR_018122.1,3.783
same,LOC440041 expression fc,Refseq XR_018122.2,3.895
same,LOC647827 expression fc,Refseq XR_018213.1,4.053
same,LOC399988 expression fc,Refseq XR_018287.2,1.966
same,LOC650215 fc,Refseq XR_018889.1,−1.139
same,fc of RBMS2P (expression array),Refseq XR_019556.2,−0.4507
same,LOC642148 expression fc,Refseq XR_019607.1,6.851
same,LOC650236 expression fc,Refseq XR_036872.1,2.915
same,LOC100134322 expression fc,Refseq XR_037416.1,2.488
same,LOC730974 expression fc,Refseq XR_037751.1,7.715
same,LOC643445 expression fc,Refseq XR_038080.1,8.25
same,LOC729516 expression fc,Refseq XR_038445.1,5.955
same,LOC340970 expression fc,Refseq XR_038494.1,8.316
same,LOC645381 expression fc,Refseq XR_038557.1,2.089
same,LOC728429 expression fc,Refseq XR_038921.1,2.178
same,LOC645638 fc,Refseq XR_040455.1,−1.128
same,LOC400464 expression fc,Refseq XR_041115.1,2.831
same,TRIM53 expression fc,Refseq XR_041244.1,4.778
same,LOC729009 expression fc,"Refseq XR_042330.1, cultured human skeletal muscle",−2.654
same,number of genes increased 8-fold or more,Table 1,164 genes
same,number of genes increased 16-fold or more,Table 1,107 genes
same,ABCC3 expression fc,cultured human skeletal muscle,−1.491
same,ADM expression fc,cultured human skeletal muscle,−1.619
same,AGTRAP expression fc,cultured human skeletal muscle,−1.467
same,AHNAK expression fc,cultured human skeletal muscle,−1.441
same,ANGPTL2 expression fc,cultured human skeletal muscle,−1.893
same,ANKFY1 expression fc,cultured human skeletal muscle,−1.396
same,APOL3 expression fc,cultured human skeletal muscle,−1.548
same,ARHGEF19 expression fc,cultured human skeletal muscle,−1.4
same,ARID3A expression fc,cultured human skeletal muscle,−1.573
same,ASNS expression fc,cultured human skeletal muscle,−1.454
same,ATF5 expression fc,cultured human skeletal muscle,−1.826
same,ATL3 expression fc,cultured human skeletal muscle,−1.455
same,BHLHB2 expression fc,cultured human skeletal muscle,−1.43
same,BTG2 expression fc,cultured human skeletal muscle,−1.573
same,BTN3A2 expression fc,cultured human skeletal muscle,−1.759
same,BTN3A3 expression fc,cultured human skeletal muscle,−1.62
same,C1RL expression fc,cultured human skeletal muscle,−1.627
same,C4orf18 expression fc,cultured human skeletal muscle,−1.781
same,C8orf13 expression fc,cultured human skeletal muscle,−1.412
same,C14orf4 expression fc,cultured human skeletal muscle,−1.476
same,C18orf56 expression fc,cultured human skeletal muscle,−1.619
same,CA9 expression fc,cultured human skeletal muscle,−1.526
same,CABC1 expression fc,cultured human skeletal muscle,−1.494
same,CABYR expression fc,cultured human skeletal muscle,−1.758
same,CCDC8 expression fc,cultured human skeletal muscle,−1.453
same,CEBPD expression fc,cultured human skeletal muscle,−1.521
same,CLDN15 expression fc,cultured human skeletal muscle,−1.554
same,CNTNAP1 expression fc,cultured human skeletal muscle,−1.744
same,COL8A1 expression fc,cultured human skeletal muscle,−1.527
same,CRISPLD2 expression fc,cultured human skeletal muscle,−1.752
same,CSF3 expression fc,cultured human skeletal muscle,−1.626
same,CYGB expression fc,cultured human skeletal muscle,−1.398
same,CYP26B1 expression fc,cultured human skeletal muscle,−1.461
same,CYP27A1 expression fc,cultured human skeletal muscle,−1.6
same,DAB2 expression fc,cultured human skeletal muscle,−1.807
same,DCN expression fc,cultured human skeletal muscle,−1.673
same,DDB2 expression fc,cultured human skeletal muscle,−1.408
same,DDIT4 expression fc,cultured human skeletal muscle,−1.522
same,DDX60L expression fc,cultured human skeletal muscle,−1.638
same,DKFZp451A211 expression fc,cultured human skeletal muscle,−1.833
same,DNAJB2 expression fc,cultured human skeletal muscle,−1.488
same,DUSP10 expression fc,cultured human skeletal muscle,−1.39
same,ERAP2 expression fc,cultured human skeletal muscle,−1.605
same,ESPNL expression fc,cultured human skeletal muscle,−1.567
same,FADS1 expression fc,cultured human skeletal muscle,−1.845
same,FAM110B expression fc,cultured human skeletal muscle,−1.675
same,FAM175A expression fc,cultured human skeletal muscle,−1.54
same,FHL2 expression fc,cultured human skeletal muscle,−1.58
same,FILIP1L expression fc,cultured human skeletal muscle,−1.784
same,FKBP5 expression fc,cultured human skeletal muscle,−1.758
same,FOXQ1 expression fc,cultured human skeletal muscle,−1.432
same,FPR1 expression fc,cultured human skeletal muscle,−1.603
same,FST expression fc,cultured human skeletal muscle,−1.812
same,FUCA1 expression fc,cultured human skeletal muscle,−1.615
same,GALK1 expression fc,cultured human skeletal muscle,−1.411
same,GALNTL2 expression fc,cultured human skeletal muscle,−1.834
same,GAS1 expression fc,cultured human skeletal muscle,−1.732
same,GBP4 expression fc,cultured human skeletal muscle,−1.478
same,GFPT2 expression fc,cultured human skeletal muscle,−1.612
same,GPX8 expression fc,cultured human skeletal muscle,−1.606
same,GRINA expression fc,cultured human skeletal muscle,−1.427
same,GSDMD expression fc,cultured human skeletal muscle,−1.763
same,HAS2 expression fc,cultured human skeletal muscle,−1.679
same,HCG4 expression fc,cultured human skeletal muscle,−1.651
same,HES4 expression fc,cultured human skeletal muscle,−1.751
same,HLA-C expression fc,cultured human skeletal muscle,−1.788
same,HLA-H expression fc,cultured human skeletal muscle,−1.798
same,HOXC6 expression fc,cultured human skeletal muscle,−1.539
same,ID3 expression fc,cultured human skeletal muscle,−1.627
same,IDH3B expression fc,cultured human skeletal muscle,−1.542
same,IFIT5 expression fc,cultured human skeletal muscle,−1.645
same,IFITM2 expression fc,cultured human skeletal muscle,−1.713
same,IGFBP5 expression fc,cultured human skeletal muscle,−1.441
same,IHPK3 expression fc,cultured human skeletal muscle,−1.859
same,IL32 expression fc,cultured human skeletal muscle,−1.681
same,IMPA2 expression fc,cultured human skeletal muscle,−1.437
same,IRAK2 expression fc,cultured human skeletal muscle,−1.447
same,IRAK3 expression fc,cultured human skeletal muscle,−1.5
same,ISCU expression fc,cultured human skeletal muscle,−1.547
same,ITPRIP expression fc,cultured human skeletal muscle,−1.763
same,KIAA1618 expression fc,cultured human skeletal muscle,−1.843
same,KLF6 expression fc,cultured human skeletal muscle,−1.659
same,KRT17 expression fc,cultured human skeletal muscle,−1.626
same,LAP3 expression fc,cultured human skeletal muscle,−1.552
same,LIMA1 expression fc,cultured human skeletal muscle,−1.463
same,LOC387763 expression fc,cultured human skeletal muscle,−1.46
same,LOC389386 expression fc,cultured human skeletal muscle,−1.521
same,LOC392437 expression fc,cultured human skeletal muscle,−1.674
same,LOC653879 expression fc,cultured human skeletal muscle,−1.416
same,LOC728431 expression fc,cultured human skeletal muscle,−1.44
same,MAMDC2 expression fc,cultured human skeletal muscle,−1.858
same,MAOA expression fc,cultured human skeletal muscle,−1.71
same,MCEE expression fc,cultured human skeletal muscle,−1.398
same,MGC16121 expression fc,cultured human skeletal muscle,−1.828
same,MIOS expression fc,cultured human skeletal muscle,−1.485
same,MLPH expression fc,cultured human skeletal muscle,−1.788
same,MMP3 expression fc,cultured human skeletal muscle,−1.509
same,MOCOS expression fc,cultured human skeletal muscle,−1.716
same,MOV10 expression fc,cultured human skeletal muscle,−1.658
same,MSC expression fc,cultured human skeletal muscle,−1.605
same,MSI2 expression fc,cultured human skeletal muscle,−1.763
